These results are taken from patent US6875746B1, “Anticancer anthraquinones and method of use thereof” (Board of Trustees of Michigan State University, priority 2002, dated 2005).

Test [1] relates to breast (MCF-7), CNS (SF-268), colon (HCT-116) and lung (NCI-H460) human tumor cell lines. The experiment in a line: cancer cell growth inhibition assay, statements on the four cell lines together. It counts as cell-based. Particulars: MCF-7, SF-268, HCT-116, NCI-H460. As to the method:
The compounds were tested for their activity against breast, central nervous system (CNS), colon, and lung human tumor cell lines. The breast (MCF-7), CNS(SF-268), and lung (NCI-H460) cultures were purchased from the National Cancer Institute (Bethesda, Md.) while the colon culture (HCT-116) was purchased from the American Type Culture Collection (Arlington, Va.). All cell lines were maintained in a humidified chamber at 37° C. with 5% CO2 in RPMI-1640 medium supplemented with 10% fetal bovine serum, penicillin (1 unit/100 mL), and streptomycin (1 μg/100 mL). All cell lines were sub-cultured according to their individual growth profiles in order to ensure exponential growth throughout the experiments. Breast (10,000 cells/well), CNS (15,000 cells/well), colon (7,500 cells/well), and lung (7,500 cells/well) cancer cells were aliquoted (100 μL) into 96-well plates and allowed to grow for 24 hours before the addition of the test compounds to the media. The compounds were dissolved in DMSO and diluted in sterile media as necessary to obtain the appropriate concentration. […] Test compounds, standards, and DMSO control were incubated for 48 hours, after which the assay was terminated via the addition of cold trichloroacetic acid. The plates were incubated for one hour at 4° C., washed with deionized water (five times), and air-dried. A 100 μL aliquot of 0.4% sulforhodamine B stain in 1% acetic acid was added to each well and the plates were incubated for 30 minutes at room temperature. Following incubation, the wells were rinsed with 1% acetic acid (five times) and the bound stain was dissolved in 100 μL of 10 mM TRIZMA base. The plates were shaken for five minutes on a gyrorotary shaker after which the absorbance of each well was recorded with an automated microplate reader (model EL800, Bio-Tek Instruments, Inc., Winooski, Vt.) at 515 nm. Three independent experiments were performed in triplicate using at least five drug concentrations inclusive of the 50% growth inhibitory concentration. […]

The next test relates to MCF-7 (breast). The experiment in a line: cancer cell growth inhibition assay (sulforhodamine B), MCF-7. It is filed as cell-based. The conditions noted are these: Homo sapiens, MCF7, read-out: GI50 ± SE, MCF-7 (breast). The protocol:
(§1) The compounds were tested for their activity against breast, central nervous system (CNS), colon, and lung human tumor cell lines. The breast (MCF-7), CNS(SF-268), and lung (NCI-H460) cultures were purchased from the National Cancer Institute (Bethesda, Md.) while the colon culture (HCT-116) was purchased from the American Type Culture Collection (Arlington, Va.). All cell lines were maintained in a humidified chamber at 37° C. with 5% CO2 in RPMI-1640 medium supplemented with 10% fetal bovine serum, penicillin (1 unit/100 mL), and streptomycin (1 μg/100 mL). All cell lines were sub-cultured according to their individual growth profiles in order to ensure exponential growth throughout the experiments. Breast (10,000 cells/well), CNS (15,000 cells/well), colon (7,500 cells/well), and lung (7,500 cells/well) cancer cells were aliquoted (100 μL) into 96-well plates and allowed to grow for 24 hours before the addition of the test compounds to the media. The compounds were dissolved in DMSO and diluted in sterile media as necessary to obtain the appropriate concentration. […] Test compounds, standards, and DMSO control were incubated for 48 hours, after which the assay was terminated via the addition of cold trichloroacetic acid. The plates were incubated for one hour at 4° C., washed with deionized water (five times), and air-dried. A 100 μL aliquot of 0.4% sulforhodamine B stain in 1% acetic acid was added to each well and the plates were incubated for 30 minutes at room temperature. Following incubation, the wells were rinsed with 1% acetic acid (five times) and the bound stain was dissolved in 100 μL of 10 mM TRIZMA base. The plates were shaken for five minutes on a gyrorotary shaker after which the absorbance of each well was recorded with an automated microplate reader (model EL800, Bio-Tek Instruments, Inc., Winooski, Vt.) at 515 nm. Three independent experiments were performed in triplicate using at least five drug concentrations inclusive of the 50% growth inhibitory concentration. Results are expressed as the concentration of compound required to inhibit cellular growth 50% (GI50) ±SE.

The subject of another test is HCT-116 (colon). The experiment in a line: cancer cell growth inhibition assay (sulforhodamine B), HCT-116. It is filed as cell-based. The conditions noted are these: Homo sapiens, read-out: GI50 ± SE, HCT-116 (colon). As to the method: as §1
The subject of the next test is NCI-H460 (lung). Briefly: cancer cell growth inhibition assay (sulforhodamine B), NCI-H460. It is filed as cell-based. The conditions noted are these: Homo sapiens, read-out: GI50 ± SE, NCI-H460 (lung). The protocol:
as §1

For test [2], the system named is HCT 116 human colon carcinoma cells. Briefly: MTT cell viability assay, HCT 116. It is filed as cell-based. Particulars: at GI50 concentration, 48 hours, FIG. 4. The protocol:
(§2) In this example, compounds 1, 1a, 2, 2a, 3, 4, 6, and 8 were tested for cell toxicity using an 3-[4,5-dimethylthiazol-2-yl]-2,5-diphenyltetrazolium bromide (MTT) cell viability assay. The assay monitors the conversion of MTT to the dye, formazan, by viable cells. The formazan crystals form a precipitate which is dissolved in DMSO and analyzed by spectroscopy. MTT is not converted to formazan by dead cells. Therefore, the amount of dye detected is inversely related to the toxicity of the compound being tested.
(§3) The cancer cells used were HCT 116 (colon carcinoma, human, batch # F-11276), SF-268 (CNS, glioblastoma, human, 0503138), NCI-H460 (lung, large cell carcinoma, human, 503473), and MCF-7 (breast, mammary adenocarcinoma, human, 0501975) were procured from NCI, NIH.
(§4) The cells were grown in RPMI 1640 media supplemented with 10% fetal bovine serum and maintained at 37° C. in a humidified atmosphere of 5% CO2. Cells were seeded in 96 well plates at a density of 2000 cells per well. […] To each well, 200 μL of DMSO was added immediately, shaken for 5 min, and optical density of each well was recorded at 570 nm using Universal Microplate Reader. […]
(§5) The average optical densities of three wells for each sample tested and of DMSO control were calculated. The average optical densities of samples and of DMSO control from the replicates were then calculated. […]

Test [3] has as its system colon (HT-29) tumor cell line. Particulars: Li and McLaughlin, J. Nat. Prod. 52: 660-662 (1989); cited from earlier work.
In test [4] the test system is SF-268 human CNS glioblastoma cells. Briefly: MTT cell viability assay, SF-268. It is filed as cell-based. The conditions noted are these: at GI50 concentration, 48 hours, FIG. 5; compared with 8, 4, 6 and mixture 1a and 2a. As to the method: as §2, §3, §4, §5
A general note: Tetrazolium assays rely on reduction of a dye to a coloured formazan, in cell work by metabolically active cells.

Test [5] deals with nasal (KBMRI) tumor cell line. Particulars: Li and McLaughlin, J. Nat. Prod. 52: 660-662 (1989); cited from earlier work.
The test system of test [6] is lung (A-549) tumor cell line. Particulars: Li and McLaughlin, J. Nat. Prod. 52: 660-662 (1989); cited from earlier work.
A further test deals with SF-268 (CNS). Briefly: cancer cell growth inhibition assay (sulforhodamine B), SF-268. It counts as cell-based. The conditions noted are these: Homo sapiens, read-out: GI50 ± SE, SF-268 (CNS). The protocol:
as §1

Test [7] relates to NCI-H460 human large cell carcinoma cells. Briefly: MTT cell viability assay, NCI-H460. It counts as cell-based. The conditions noted are these: at GI50 concentration, 48 hours, FIG. 6. The protocol: as §2, §3, §4, §5
The mark [8] stands for this setting: 48 hours incubation, sulforhodamine B stain.
Setting [9] is: adriamycin values expressed in μM (footnote a), 48 hours.

In brackets after ≈: the same amount, converted by molar mass. Entries after “also recorded” stand apart in the source; their conditions may differ. Like-named read-outs stand apart in the source and are kept apart here.

Consider `Cc1cc2c(c(O)c1O)C(=O)c1c(O)cccc1C2=O` [compound 3, 1,2,8-trihydroxy-3-methyl anthraquinone], for which the “activity against all four cancer cell lines (in words)” value (shortened to “activity”) in test [1] is reported as “consistent activity”. For the same compound, the GI50 worked out at 6.5 ± 1.2 µg/mL in the test on MCF-7 (breast) (setting [8]), 6.3 ± 0.8 µg/mL in the test with HCT-116 (colon) (setting [8]), 6.3 ± 0.8 µg/mL in the test on NCI-H460 (lung) (setting [8]) and 2.4 ± 1.8 µg/mL in the test on SF-268 (CNS) (setting [8]). Further, in test [2], the “toxicity in MTT assay, HCT 116 (Colon cancer)” value is reported as “higher toxicity than the rest of the anthraquinones”. In addition, the “ED50, colon (HT-29)” value in [3] is 2.8 µg/mL (≈ 10.4 µM). The “toxicity in MTT assay, SF-268 (CNS cancer)” value in test [4] is listed as “higher toxicity”. Also, the ED50, nasal (KBMRI) in [5] is 5.7 µg/mL (≈ 21.1 µM). Also, in test [6], the “ED50, lung (A-549)” value was 3.1 µg/mL (≈ 11.5 µM).
For `O=C(O)c1cc(O)c2c(c1)C(=O)c1cccc(O)c1C2=O` [compound 8, 1,8-dihydroxy-3-carboxy anthraquinone], in test [1], the “activity” value is “moderate activity”. The GI50 amounted to 17.2 ± 0.8 µg/mL with MCF-7 (breast) (setting [8]), 21.1 ± 1.8 µg/mL in the test with HCT-116 (colon) (setting [8]), 15.4 ± 1.7 µg/mL in the test on NCI-H460 (lung) (setting [8]) and 16.3 ± 1.8 µg/mL with SF-268 (CNS) (setting [8]). For the same compound, in test [7], the “toxicity in MTT assay, NCI H460 (Lung cancer)” value is given as “lest toxic”.
Take `O=C1c2cccc(O)c2C(=O)c2c1cc(CO)c(O)c2O` [compound 6, 1,2,8-trihydroxy-3-hydroxymethyl anthraquinone]: the “activity” value in [1] is on record as “consistent activity; also recorded: concentrations similar to that of compound 3”. Further, the GI50 is 2.8 ± 0.3 µg/mL in the test with MCF-7 (breast) (setting [8]), 5 ± 0.3 µg/mL in the test on HCT-116 (colon) (setting [8]), 7.3 ± 0.7 µg/mL with NCI-H460 (lung) (setting [8]) and 3.8 ± 0.7 µg/mL with SF-268 (CNS) (setting [8]).
As for `COc1cccc2c1C(=O)c1c(O)c3c(c(O)c1C2=O)C[C@@](O)(C(=O)CO)C[C@@H]3O[C@H]1C[C@H](N)[C@H](O)[C@H](C)O1` [adriamycin, reference compound], the GI50 with MCF-7 (breast) (setting [9]) was 1.7 ± 0.2 µM; with HCT-116 (colon) (setting [9]) it was 2.1 ± 0.6 µM; in the test on NCI-H460 (lung) (setting [9]) it was 1.7 ± 0.4 µM; in the test with SF-268 (CNS) (setting [9]), 1.9 ± 0.7 µM.

Usually GI50 stands for the concentration at which growth is held to half of that of the control.
